SMILES strings stand for the structures.

Experimental findings from patent US8999970B2, “Administration of an anti-obesity compound to individuals with renal impairment” (Arena Pharmaceuticals, Inc., priority 2010, dated 2015) are described below.

A short description of series [1]: Preclinical toxicology: M1 and M5 pharmacokinetics after oral administration of lorcaserin, 52 wk, mice.
The nature of series [2]: Toxicity studies in rats (determination of NOAEL). Format: in vivo. To be noted: for Exposure multiple relative to human exposure at 10 mg BID: rats 5 mg/kg/day (NOAEL); for Exposure multiple of human exposure at 10 mg BID: rats 50 mg/kg/day for 6 months. On the procedure:
In rats, a single 1000 mg/kg dose caused death. […] The highest dose tested in 28-day studies, 50 mg/kg/day, was associated with increased serum lipids, centrilobular hepatocellular hypertrophy, splenic extramedullary hematopoiesis, increased pigmented macrophages, and reticulocytosis, and increased kidney weights, with minimal renal tubular epithelial hyperplasia in males only. A 13-week study and a 6-month study gave similar findings except there was no renal tubular epithelial changes and increases in kidney weights were limited to the 3-month study; the NOAEL was 5 mg/kg/day, which produced exposure multiples of 1.2 and 2.8 (males and females) relative to human exposure at a dose of 10 mg BID.
In rats but not mice, modest increases in kidney weights were reported at high dose (≧50 mg/kg) in the 10-day, 28-day and 3-month studies, but were without microscopic correlate except in the 28-day study, in which minimal renal tubular epithelial hypertrophy was reported in male rats. In the one year toxicology study in monkeys, minimal to moderate focal tubular epithelial degeneration and/or regeneration were observed. The potential clinical relevance of this finding was evaluated in two ways. First, two pathologists with expertise in human renal pathology (Helmut Rennke, M.D. and Stephen Bonsib, M.D.) independently reviewed all monkey kidney slides from the 1-year study in a blinded manner. Both reported the findings to be mild and focal, clinically unimportant, without dose relationship, and more likely related to aging, infection, or inflammation than to study drug. Secondly, renal function was monitored in clinical trials not only by measuring creatinine and BUN, but also by examining urine sediment and by calculating creatinine clearance. The urine sediment data are of limited value due to the preponderance of “dirty” urine specimens contaminated with epithelial cells and other external debris. Neither BUN nor creatinine was affected by lorcaserin. Creatinine clearance, which was calculated using both actual body weight and the preferred ideal body weight method, was also not affected by lorcaserin use of up to 2 years.

Series [3] in a line: Pivotal phase 3 clinical trial program (weight loss). The series is classed as in vivo, human.
Description: (§1) In December 2009, Arena Pharmaceuticals submitted a New Drug Application, or NDA, for lorcaserin to the FDA. The NDA submission is based on an extensive data package from lorcaserin's clinical development program that includes 18 clinical trials totaling 8,576 patients. […] About two-thirds of patients achieved at least 5% weight loss and over one-third achieved at least 10% weight loss. On average, patients lost 17 to 18 pounds or about 8% of their weight. Secondary endpoints, including body composition, lipids, cardiovascular risk factors and glycemic parameters improved compared to placebo. In addition, heart rate and blood pressure went down. […] Lorcaserin improved quality of life, and there was no signal for depression or suicidal ideation. The only adverse event that exceeded the placebo rate by 5% was generally mild or moderate, transient headache. Based on a normal BMI of 25, patients in the first phase 3 trial lost about one-third of their excess body weight. The average weight loss was 35 pounds or 16% of body weight for the top quartile of patients in the second phase 3 trial.
as §1, with “Heart” for “In addition, heart”

Setting [4] is: lorcaserin 25 mg/kg/day oral, F.
The mark [5] stands for this setting: lorcaserin 25 mg/kg/day oral, M.
The mark [6] stands for this setting: lorcaserin 50 mg/kg/day oral, F.
Where [7] appears, read: lorcaserin 50 mg/kg/day oral, M.
Where [8] appears, read: phase 3 program, treated for up to two years.

One may read the Cmax as the peak of the concentration-time curve. `C[C@H]1CN(S(=O)(=O)O)CCc2ccc(Cl)cc21` [Compound M1, lorcaserin sulfamate]: the AUC0-inf is 75.2 µg·h/mL in series [1] (lorcaserin 5 mg/kg/day oral, F); 61.2 µg·h/mL in series [1] (lorcaserin 5 mg/kg/day oral, M); 221 µg·h/mL in series [1] (setting [4]); 356 µg·h/mL in series [1] (setting [6]); 319 µg·h/mL in series [1] (setting [7]). Also, the AUClast came out at 74.4 µg·h/mL in series [1] (lorcaserin 5 mg/kg/day oral, F); 59.7 µg·h/mL in series [1] (lorcaserin 5 mg/kg/day oral, M); 217 µg·h/mL in series [1] (setting [4]); 223 µg·h/mL in series [1] (setting [5]); 345 µg·h/mL in series [1] (setting [6]); 308 µg·h/mL in series [1] (setting [7]). Also, the Cmax in series [1] (lorcaserin 5 mg/kg/day oral, F) is 14.4 µg/mL; in series [1] (lorcaserin 5 mg/kg/day oral, M) it was 10.8 µg/mL; in series [1] (setting [4]), 39.8 µg/mL; in series [1] (setting [5]), 25.4 µg/mL; in series [1] (setting [6]), 49.1 µg/mL; in series [1] (setting [7]), 42.7 µg/mL. In addition, the tmax in series [1] (lorcaserin 5 mg/kg/day oral, F) was 30 min; in series [1] (lorcaserin 5 mg/kg/day oral, M), 30 min; in series [1] (setting [4]), 30 min; in series [1] (setting [5]), 30 min; in series [1] (setting [6]), 30 min; in series [1] (setting [7]), 30 min.
On to `C[C@H]1CN(C(=O)O[C@@H]2O[C@H](C(=O)O)[C@@H](O)[C@H](O)[C@H]2O)CCc2ccc(Cl)cc21` [Compound M5, N-carbamoyl glucuronide of lorcaserin], for which the AUC0-inf stood at 0.201 µg·h/mL in series [1] (lorcaserin 5 mg/kg/day oral, F); 0.178 µg·h/mL in series [1] (lorcaserin 5 mg/kg/day oral, M); 3.26 µg·h/mL in series [1] (setting [6]); 3.47 µg·h/mL in series [1] (setting [7]). The AUClast in series [1] (lorcaserin 5 mg/kg/day oral, F) worked out at 0.184 µg·h/mL; in series [1] (lorcaserin 5 mg/kg/day oral, M), 0.134 µg·h/mL; in series [1] (setting [4]), 1.21 µg·h/mL; in series [1] (setting [5]) it was 1.84 µg·h/mL; in series [1] (setting [6]) it was 3.23 µg·h/mL; in series [1] (setting [7]), 3.42 µg·h/mL. For the same compound, the Cmax in series [1] (lorcaserin 5 mg/kg/day oral, F) stood at 0.100 µg/mL; in series [1] (lorcaserin 5 mg/kg/day oral, M), 0.0983 µg/mL; in series [1] (setting [4]), 0.431 µg/mL; in series [1] (setting [5]), 0.590 µg/mL; in series [1] (setting [6]), 0.824 µg/mL; in series [1] (setting [7]), 1.00 µg/mL. Besides, the tmax was 30 min in series [1] (lorcaserin 5 mg/kg/day oral, F); 30 min in series [1] (lorcaserin 5 mg/kg/day oral, M); 30 min in series [1] (setting [4]); 30 min in series [1] (setting [5]); 30 min in series [1] (setting [6]); 30 min in series [1] (setting [7]).
The term NOAEL denotes the highest dose or exposure tested at which no adverse effect was seen. As to `C[C@H]1CNCCc2ccc(Cl)cc21` [Lorcaserin, (R)-8-chloro-1-methyl-2,3,4,5-tetrahydro-1H-3-benzazepine], the NOAEL in series [2] (both sexes, rat, in vivo, rats, 13-week and 6-month studies) amounted to 5 mg/kg/day. The “Single dose that caused death” value in series [2] (rats) is given as 1000 mg/kg. For the same compound, in series [2] (females), the “Exposure multiple relative to human exposure at 10 mg BID” value is 2.8 and the “Exposure multiple of human exposure at 10 mg BID” value is on record as 34 times. In series [2] (males), the “Exposure multiple relative to human exposure at 10 mg BID” value worked out at 1.2 and the “Exposure multiple of human exposure at 10 mg BID” value is given as 22 times. Besides, the “Doses with no mortality” value in series [2] (rats, 10-day repeat dose studies) was no more than 150 mg/kg/day. Besides, in series [2] (rats, 10-day, 28-day and 3-month studies), the “Doses with modest increases in kidney weights” value is given as no less than 50 mg/kg. Further, in series [3] (first phase 3 trial, based on a normal BMI of 25), the “Excess body weight lost” value was “about one-third”. For the same compound, in series [3] (phase 3 program), the “Average weight lost, of their weight” value was “about 8%” and the “Risk of cardiac valvulopathy” value is given as “did not increase the risk”. Besides, in series [3] (setting [8]), the “Patients who achieved at least 5% weight loss” value was “About two-thirds” and the “Patients who achieved at least 10% weight loss” value is reported as “over one-third”. Also, in series [3] (second phase 3 trial), the “Average weight loss, top quartile of patients” value is recorded as 35 pounds and the “Average weight loss, top quartile of patients, of body weight” value is 16%.
